{
  "source": "patent US10046003B2",
  "about": "“Composition for treating neuropathy, a process and a method of treatment thereof” (INDUS BIOTECH PRIVATE LIMITED, priority 2013, dated 2018)",
  "test_system": "PSNL rats",
  "test": "Motor nerve conduction velocity, comparison of Test composition vs alcoholic extract of fenugreek vs Pinitol stand-alone in PSNL rat model",
  "assay_type": "in vivo",
  "procedure": "To compare efficacy of test Composition with Alcoholic Extract of Fenugreek (30 mg/kg p.o) and Pinitol stand-alone (30 mg/kg) in neuropathy, PSNL rat model is used. The sciatic nerve of the rats is exposed and they received injury by a process where a 4-0 silk suture are inserted into the nerve with ⅜ curve, with a reverse-cutting mini needle and is tightly ligated so that the dorsal ⅓-½ of the nerve thickness are trapped in the ligature. They received only vehicle (Distilled water). Male wistar rats weighing 200-220 g average are used for the study. 500 g of fenugreek seeds is extracted by using alcoholic extraction procedure. This extract is obtained in a dry form by using vacuum evaporation technique. […] When compared with sham operated rats there is significant decrease in nerve conduction velocity in PSNL control rats. […] The data was analysed by one way ANOVA followed by Bonferroni's Multiple Comparison Test, wherein: […]",
  "data": [
    {"molecule": "CO[C@H]1[C@H](O)[C@@H](O)[C@@H](O)[C@H](O)[C@@H]1O", "note": "[Pinitol stand-alone, 3-O-methyl-1,2,4 cis-3,5,6 transhexahydroxycyclohexanol]", "values": [
      {"measurement": "nerve conduction velocity when compared with PSNL control rats", "setting": "30 mg/kg p.o., day 28", "result": "marginal effect"},
      {"measurement": "Motor Nerve Conduction Velocity (m/s)", "setting": "PSNL rats, 30 mg/kg p.o. chronic administration, Day 28 (after treatment)", "result": 13.97, "unit": "m/s"}
    ]}
  ]
}
